Assay results as given in patent publication US20250152605A1, “METHOD AND DRUG FOR TREATING NEURONAL CEROID LIPOFUSCINOSIS” (priority 2021, published 2025).

How the values were obtained:
mice's neurons = test: qRT-PCR of autophagy-related and lysosomal genes in mouse neurons; assay type: cell-based; conditions: 6 hours
Procedure: The cells in the cell-culture dish were collected, extracted using AxyPrep Total RNA Mini Prep Kit or Qiagen AxyPrep Total RNA Mini Prep Kit, and the extracted RNA concentration is measured using Nanodrop; the extracted mRNA was reverse transcribed into cDNA by Transgen's EasyScript® One-Step gDNA Removal and cDNA Synthesis SuperMix and the primers used for reverse transcription were Oligo dT primers; the completion of reverse transcription followed by qRT-PCR reaction through PerfectStart™ Green qPCR SuperMix to detect the expression of the target gene; the qRT-PCR reaction was performed on the Bio-Rad CFX96 Real-Time PCR system; see Table 2 and Table 3 for the 20 μL qRT-PCR reaction system and reaction procedures; data analysis was performed in Prism 7 software using the 2^−ΔΔCt process with GAPDH as internal reference for relative quantification of the expression of the target gene.
After treating primary (a) neural stem cells and (b) neurons of Cln3 KO) mice for 6 hours, the mRNA was extracted from the cells, reverse-transcribed into cDNA, and transcription levels of autophagy- and lysosome-related genes were detected using qRT-PCR (n=3).
It was speculated from this that the known target FXR of Compound G was expressed at low or no levels in neural lineage cells. […]

p62 protein = p62 protein blotting with Baf-A1 (autophagic flux) in human neurons; assay type: cell-based
Procedure: Sample preparation: for adherent cultured cells, exemplified by cells cultured in a six-well cell plate, the cell medium was aspirated and the cells were washed once with dPBS. About 100 μL of RIPA lysate (50 mM Tris-HCl, pH 7.5, 150 mM NaCl, 0.25% Na-deoxycholate, 0.1% NP-40, 0.1% Triton X-100) containing protease inhibitors and phosphatase inhibitors was added to each well. The cell lysate was scraped off completely with a cell scraper and collected into 1.5 mL EP tubes. Lysis was continued for 30 minutes on ice. For animal tissue, the weight of the animal tissue was weighed, and RIPA lysate containing protease inhibitors and phosphatase inhibitors was added with five times the volume of the animal tissue. The tissue was grinded on ice with a tissue grinder until there is no obvious tissue mass, collected into 1.5 mL EP tubes, and placed on ice for further lysis for 30 min. […]

## C/C=C1\C(=O)C[C@H]2[C@@H]3CCC4=CC(=O)CC[C@]4(C)[C@H]3CC[C@]12C [Compound G, (Z)-guggulsterone]
mice's neurons
  transcription level of the autophagy-related genes or the lysosomal genes: did not significantly increase
p62 protein; CLN3^Δex7/8 human neurons
  increases of p62 protein after adding Baf-A1 (autophagic flux): higher increases of p62 protein
p62 protein; under the condition of adding Baf-A1
  intracellular protein level of p62: still significantly increase
